From US20250213555A1, “SUBSTITUTED TETRAHYDROFURAN ANALOGS AS MODULATORS OF SODIUM CHANNELS” (VERTEX PHARMACEUTICALS INCORPORATED, priority 2021, published 2025) come the findings set out here.

Chain of human Nav 1.8 (Q9Y5Y9 126-399 limits assumed): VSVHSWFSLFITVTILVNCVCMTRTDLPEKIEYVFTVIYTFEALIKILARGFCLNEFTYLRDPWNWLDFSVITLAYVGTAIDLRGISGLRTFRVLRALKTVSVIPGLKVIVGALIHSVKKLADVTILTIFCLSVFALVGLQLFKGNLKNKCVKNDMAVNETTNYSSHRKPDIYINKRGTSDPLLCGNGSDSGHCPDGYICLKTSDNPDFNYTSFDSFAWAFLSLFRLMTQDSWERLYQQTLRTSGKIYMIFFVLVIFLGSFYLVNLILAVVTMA
Chain of human Nav 1.8 (Q9Y5Y9 660-890 limits assumed): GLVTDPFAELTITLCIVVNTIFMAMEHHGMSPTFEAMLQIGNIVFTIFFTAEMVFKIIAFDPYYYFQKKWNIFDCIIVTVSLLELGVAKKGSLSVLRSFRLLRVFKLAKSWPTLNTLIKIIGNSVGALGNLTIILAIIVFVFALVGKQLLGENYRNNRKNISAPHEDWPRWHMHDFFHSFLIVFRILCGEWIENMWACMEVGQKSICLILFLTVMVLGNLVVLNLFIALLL
Chain of human Nav 1.8 (Q9Y5Y9 1148-1722 limits assumed): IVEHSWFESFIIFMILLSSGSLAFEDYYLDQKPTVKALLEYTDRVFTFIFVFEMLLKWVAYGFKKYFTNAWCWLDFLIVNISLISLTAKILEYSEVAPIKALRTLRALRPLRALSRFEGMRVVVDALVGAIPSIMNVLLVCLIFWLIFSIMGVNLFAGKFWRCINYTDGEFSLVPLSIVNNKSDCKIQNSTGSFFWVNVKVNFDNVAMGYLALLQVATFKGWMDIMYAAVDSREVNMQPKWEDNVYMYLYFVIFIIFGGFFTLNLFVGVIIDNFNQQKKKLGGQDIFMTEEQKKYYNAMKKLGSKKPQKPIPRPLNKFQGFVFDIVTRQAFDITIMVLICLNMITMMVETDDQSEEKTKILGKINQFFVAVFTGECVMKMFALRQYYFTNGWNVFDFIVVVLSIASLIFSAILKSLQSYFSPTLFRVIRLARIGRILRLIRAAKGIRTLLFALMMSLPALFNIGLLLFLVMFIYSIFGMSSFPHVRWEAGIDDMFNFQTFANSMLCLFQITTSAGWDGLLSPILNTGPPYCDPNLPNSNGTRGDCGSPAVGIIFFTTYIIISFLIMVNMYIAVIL

For the experiment, the target named is human Nav 1.8 (Homo sapiens, UniProt Q9Y5Y9). The experiment is described as follows: E-VIPR assay detecting and measuring Nav inhibition properties. The following applies: HEK cells expressing a truncated form of human Nav 1.8; compound numbers without "*" (not marked as run in the presence of human serum); read-out: measured IC50 value in the E-VIPR Assay. It counts as cell-based. In a few lines:
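Nav inhibition was read by E-VIPR: cells were electrically stimulated while coumarin/oxonol FRET emissions were recorded. Cells were HEK expressing a truncated human Nav 1.8 and co-transduced with KIR2.1, and were assayed in 25% final human serum.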
Take `COc1c([C@H]2[C@H](C(=O)Nc3ccnc(C(N)=O)c3)O[C@@](C)(C(F)(F)F)[C@H]2C)cc(O)c(F)c1F` [Compound 178, 4-((2R,3S,4S,5R)-3-(3,4-difluoro-5-hydroxy-2-methoxyphenyl)-4,5-dimethyl-5-(trifluoromethyl)tetrahydrofuran-2-carboxamido) picolinamide]: the IC50 (as a rule, the point on the concentration scale where inhibition reaches its midpoint) was below 10 nM.

For the compound `COc1c([C@H]2[C@H](C(=O)Nc3ccnc(C(N)=O)c3)O[C@@](C)(C(F)(F)F)[C@H]2C)cc(OC2CC(F)(F)C2)c(F)c1F` [Compound 179, 4-((2R,3S,4S,5R)-3-(5-(3,3-difluorocyclobutoxy)-3,4-difluoro-2-methoxyphenyl)-4,5-dimethyl-5-(trifluoromethyl)tetrahydrofuran-2-carboxamido) picolinamide], the concentration for half-maximal inhibition (IC50) was in the range of 100 to 1000 nM.

Turning to `C[C@H]1[C@@H](c2ccc(F)c(F)c2OCC2COC2)[C@H](C(=O)Nc2ccnc(C(N)=O)c2)O[C@@]1(C)C(F)(F)F` [Compound 70, 4-((2R,3S,4S,5R)-3-(3,4-difluoro-2-(oxetan-3-ylmethoxy)phenyl)-4,5-dimethyl-5-(trifluoromethyl)tetrahydrofuran-2-carboxamido)picolinamide], the IC50 is below 10 nM.

Take `C[C@H]1[C@@H](c2ccc(F)c(F)c2OC2CCOCC2)[C@H](C(=O)Nc2ccnc(C(N)=O)c2)O[C@@]1(C)C(F)(F)F` [Compound 65, 4-((2R,3S,4S,5R)-3-(3,4-difluoro-2-((tetrahydro-2H-pyran-4-yl)oxy)phenyl)-4,5-dimethyl-5-(trifluoromethyl)tetrahydrofuran-2-carboxamido)picolinamide]: the IC50 was below 10 nM.

Turning to `COc1c([C@H]2[C@H](C(=O)Nc3nccc(C(=O)N4CCNCC4)n3)O[C@@](C)(C(F)(F)F)[C@H]2C)ccc(F)c1F` [Compound 20, (2R,3S,4S,5R)-3-(3,4-difluoro-2-methoxyphenyl)-4,5-dimethyl-N-(4-(piperazine-1-carbonyl)pyrimidin-2-yl)-5-(trifluoromethyl)tetrahydrofuran-2-carboxamide], the concentration for half-maximal inhibition (IC50) is 10 to 100 nM.

Take `CON=C(C)COc1c([C@H]2[C@H](C(=O)Nc3ccnc(C(N)=O)c3)O[C@@](C)(C(F)(F)F)[C@H]2C)ccc(F)c1F` (single isomer, unassigned) [Compound 194, rel-4-((2R*,3S*,4S*,5R*)-3-(3,4-difluoro-2-(2-(methoxyimino)propoxy)phenyl)-4,5-dimethyl-5-(trifluoromethyl)tetrahydrofuran-2-carboxamido)picolinamide]: the IC50 is below 10 nM.

As for `C[C@H](CO)COc1c([C@H]2[C@H](C(=O)Nc3ccnc(C(N)=O)c3)O[C@@](C)(C(F)(F)F)[C@H]2C)ccc(F)c1F` [Compound 82, 4-((2R,3S,4S,5R)-3-(3,4-difluoro-2-((R)-3-hydroxy-2-methylpropoxy)phenyl)-4,5-dimethyl-5-(trifluoromethyl)tetrahydrofuran-2-carboxamido)picolinamide], the IC50 is below 10 nM.

In the case of `COc1c([C@H]2[C@H](C(=O)Nc3ccnc(C(=O)N4CCC45CN(C)C5)c3)O[C@@](C)(C(F)(F)F)[C@H]2C)ccc(F)c1F` [Compound 266, (2R,3S,4S,5R)-3-(3,4-difluoro-2-methoxyphenyl)-4,5-dimethyl-N-(2-(6-methyl-1,6-diazaspiro[3.3]heptane-1-carbonyl)pyridin-4-yl)-5-(trifluoromethyl)tetrahydrofuran-2-carboxamide], the half-inhibitory concentration (IC50) was in the range of 10 to 100 nM.

On to `COc1c([C@H]2[C@H](C(=O)Nc3ccnc(C(=O)N4C[C@@H](N)[C@H](F)C4)c3)O[C@@](C)(C(F)(F)F)[C@H]2C)ccc(F)c1F` [Compound 258, (2R,3S,4S,5R)-N-(2-((3R,4R)-3-amino-4-fluoropyrrolidine-1-carbonyl)pyridin-4-yl)-3-(3,4-difluoro-2-methoxyphenyl)-4,5-dimethyl-5-(trifluoromethyl)tetrahydrofuran-2-carboxamide], for which the IC50 is below 10 nM.

As to `COc1c([C@H]2[C@H](C(=O)Nc3ccnc(C(=O)N4C[C@H](OC)[C@@H](N(C)C)C4)c3)O[C@@](C)(C(F)(F)F)[C@H]2C)ccc(F)c1F` [Compound 293, (2R,3S,4S,5R)-3-(3,4-difluoro-2-methoxyphenyl)-N-(2-((3S,4S)-3-(dimethylamino)-4-methoxypyrrolidine-1-carbonyl)pyridin-4-yl)-4,5-dimethyl-5-(trifluoromethyl)tetrahydrofuran-2-carboxamide], the concentration for half-maximal inhibition (IC50) is below 10 nM.

`COc1c([C@H]2[C@H](C(=O)Nc3ccnc(C(=O)N[C@H]4CN(C)CC[C@H]4OC)c3)O[C@@](C)(C(F)(F)F)[C@H]2C)ccc(F)c1F` [Compound 285, 4-((2R,3S,4S,5R)-3-(3,4-difluoro-2-methoxyphenyl)-4,5-dimethyl-5-(trifluoromethyl)tetrahydrofuran-2-carboxamido)-N-((3S,4R)-4-methoxy-1-methylpiperidin-3-yl)picolinamide]: the IC50 is 100 to 1000 nM.

With `COc1c([C@H]2[C@H](C(=O)Nc3ccnc(C(=O)N[C@H]4CCNC4)c3)O[C@@](C)(C(F)(F)F)[C@H]2C)ccc(F)c1F` [Compound 238, 4-((2R,3S,4S,5R)-3-(3,4-difluoro-2-methoxyphenyl)-4,5-dimethyl-5-(trifluoromethyl)tetrahydrofuran-2-carboxamido)-N-((S)-pyrrolidin-3-yl)picolinamide], the IC50 was below 10 nM.

Take `COc1c([C@H]2[C@H](C(=O)Nc3ccnc(C(=O)N4CC5COCC(C4)N5)c3)O[C@@](C)(C(F)(F)F)[C@H]2C)ccc(F)c1F` [Compound 245, (2R,3S,4S,5R)-N-(2-(3-oxa-7,9-diazabicyclo[3.3.1]nonane-7-carbonyl)pyridin-4-yl)-3-(3,4-difluoro-2-methoxyphenyl)-4,5-dimethyl-5-(trifluoromethyl)tetrahydrofuran-2-carboxamide]: the IC50 was below 10 nM.

As for `C[C@H]1[C@@H](c2ccc(F)c(F)c2OCCN2CCC2)[C@H](C(=O)Nc2ccnc(C(N)=O)c2)O[C@@]1(C)C(F)(F)F` [Compound 54, 4-((2R,3S,4S,5R)-3-(2-(2-(azetidin-1-yl)ethoxy)-3,4-difluorophenyl)-4,5-dimethyl-5-(trifluoromethyl)tetrahydrofuran-2-carboxamido)picolinamide], the concentration for half-maximal inhibition (IC50) is 10 to 100 nM.

Turning to `COc1c([C@H]2[C@H](C(=O)Nc3ccnc(C(=O)N4C[C@@H](C)NC[C@H]4C)c3)O[C@@](C)(C(F)(F)F)[C@H]2C)ccc(F)c1F` [Compound 250, (2R,3S,4S,5R)-3-(3,4-difluoro-2-methoxyphenyl)-N-(2-((2R,5R)-2,5-dimethylpiperazine-1-carbonyl)pyridin-4-yl)-4,5-dimethyl-5-(trifluoromethyl)tetrahydrofuran-2-carboxamide], the IC50 is below 10 nM.

On to `C[C@@H](COc1c([C@H]2[C@H](C(=O)Nc3ccnc(C(N)=O)c3)O[C@@](C)(C(F)(F)F)[C@H]2C)ccc(F)c1F)N1CC2(COC2)C1` [Compound 40, 4-((2R,3S,4S,5R)-3-(2-((S)-2-(2-oxa-6-azaspiro[3.3]heptan-6-yl)propoxy)-3,4-difluorophenyl)-4,5-dimethyl-5-(trifluoromethyl)tetrahydrofuran-2-carboxamido)picolinamide], for which the half-inhibitory concentration (IC50) was below 10 nM.

For `CCOc1ccc([C@@H]2[C@@H](C(=O)Nc3ccnc(C(N)=O)c3)O[C@](C)(C(F)(F)F)[C@@H]2C)c2c1OC(F)(F)O2` (single isomer, unassigned) [Compound 209], the half-inhibitory concentration (IC50) is at least 1000 nM.

As for `C[C@H]1[C@@H](c2ccc(F)c(F)c2OCC#N)[C@H](C(=O)Nc2ccnc(C(N)=O)c2)O[C@@]1(C)C(F)(F)F` [Compound 69, 4-((2R,3S,4S,5R)-3-(2-(cyanomethoxy)-3,4-difluorophenyl)-4,5-dimethyl-5-(trifluoromethyl)tetrahydrofuran-2-carboxamido)picolinamide], the IC50 is below 10 nM.

For the compound `C[C@H]1[C@@H](c2cccc(Cl)c2O[C@H]2C[C@@H](O)C2)[C@H](C(=O)Nc2ccnc(C(N)=O)c2)O[C@@]1(C)C(F)(F)F` [Compound 213, 4-((2R,3S,4S,5R)-3-(3-chloro-2-((1s,3R)-3-hydroxycyclobutoxy)phenyl)-4,5-dimethyl-5-(trifluoromethyl)tetrahydrofuran-2-carboxamido) picolinamide], the IC50 is below 10 nM.

For `CC(C)NCCOc1c([C@H]2[C@H](C(=O)Nc3ccnc(C(N)=O)c3)O[C@@](C)(C(F)(F)F)[C@H]2C)ccc(F)c1F` [Compound 115, 4-((2R,3S,4S,5R)-3-(3,4-difluoro-2-(2-(isopropylamino)ethoxy)phenyl)-4,5-dimethyl-5-(trifluoromethyl)tetrahydrofuran-2-carboxamido)picolinamide], the IC50 was in the range of 100 to 1000 nM.

As for `C[C@H]1[C@@H](c2ccc(F)c(F)c2OC2CS(=O)(=O)C2)[C@H](C(=O)Nc2ccnc(C(N)=O)c2)O[C@@]1(C)C(F)(F)F` [Compound 171, 4-((2R,3S,4S,5R)-3-(2-((1,1-dioxidothietan-3-yl)oxy)-3,4-difluorophenyl)-4,5-dimethyl-5-(trifluoromethyl)tetrahydrofuran-2-carboxamido)picolinamide], the IC50 lay in the range of 100 to 1000 nM.

On to `CC(CO)COc1c([C@H]2[C@H](C(=O)Nc3ccnc(C(N)=O)c3)O[C@@](C)(C(F)(F)F)[C@H]2C)ccc(F)c1F` (stereo partly drawn) [Compound 90, 4-((2R,3S,4S,5R)-3-(3,4-difluoro-2-(3-hydroxy-2-methylpropoxy)phenyl)-4,5-dimethyl-5-(trifluoromethyl)tetrahydrofuran-2-carboxamido)picolinamide], for which the IC50 was below 10 nM.

Take `CNC1CCN(C(=O)c2cc(NC(=O)[C@@H]3O[C@@](C)(C(F)(F)F)[C@@H](C)[C@H]3c3ccc(F)c(F)c3OC)ccn2)C1` (single isomer, unassigned) [Compound 222, rel-(2R*,3S*,4S*,5R*)-3-(3,4-difluoro-2-methoxyphenyl)-4,5-dimethyl-N-(2-(3-(methylamino)pyrrolidine-1-carbonyl)pyridin-4-yl)-5-(trifluoromethyl)tetrahydrofuran-2-carboxamide]: the 50% inhibitory concentration (IC50) is below 10 nM.
